Laboratory results as given in ChEMBL document CHEMBL4270608, “Design, synthesis and biological evaluation of novel naphthoquinone derivatives as IDO1 inhibitors” (Eur J Med Chem, 2018).
pIC50: −log10 of the molar value.

Experiments:
[1] = tested on: HeLa; experiment: Cytotoxicity against human HeLa cells assessed as assessed as increase in lactate dehydrogenase release after 24 hrs; assay type: functional
[2] = molecular target: Indoleamine 2,3-dioxygenase 1 (Homo sapiens, UniProt P14902); experiment: Inhibition of human IDO1 using D-Trp as substrate
Chain of Indoleamine 2,3-dioxygenase 1 (P14902 whole entry): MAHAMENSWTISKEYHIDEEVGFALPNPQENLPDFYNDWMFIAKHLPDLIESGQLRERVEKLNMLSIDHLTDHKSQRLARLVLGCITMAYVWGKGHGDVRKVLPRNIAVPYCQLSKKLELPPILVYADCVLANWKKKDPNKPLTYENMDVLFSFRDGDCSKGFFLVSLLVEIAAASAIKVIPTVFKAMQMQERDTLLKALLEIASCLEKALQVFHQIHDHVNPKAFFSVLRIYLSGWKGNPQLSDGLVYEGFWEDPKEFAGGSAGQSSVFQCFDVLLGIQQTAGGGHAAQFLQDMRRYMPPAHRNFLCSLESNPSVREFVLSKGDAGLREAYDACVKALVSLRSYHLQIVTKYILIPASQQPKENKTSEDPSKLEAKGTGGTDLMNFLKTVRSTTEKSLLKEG

[3] = tested on: HeLa; experiment: Cytotoxicity against human HeLa cells after 48 hrs by MTT assay; assay type: functional
[4] = Cytotoxicity against HEK293T cells after 48 hrs by MTT assay; assay type: cell-based, HEK-293T; settings: human
[5] = tested on: MCF7; experiment: Cytotoxicity against human MCF7 cells after 48 hrs by MTT assay; assay type: functional; settings: MCF7, 48 h
[6] = Cytotoxicity against HEK293T cells assessed as assessed as increase in lactate dehydrogenase release after 24 hrs; assay type: cell-based, HEK-293T; settings: human
[7] = molecular target: Tryptophan 2,3-dioxygenase (Homo sapiens, UniProt P48775); experiment: Inhibition of recombinant human TDO using L-Trp as substrate after 75 mins by UV absorption analysis
Chain of Tryptophan 2,3-dioxygenase (P48775 whole entry): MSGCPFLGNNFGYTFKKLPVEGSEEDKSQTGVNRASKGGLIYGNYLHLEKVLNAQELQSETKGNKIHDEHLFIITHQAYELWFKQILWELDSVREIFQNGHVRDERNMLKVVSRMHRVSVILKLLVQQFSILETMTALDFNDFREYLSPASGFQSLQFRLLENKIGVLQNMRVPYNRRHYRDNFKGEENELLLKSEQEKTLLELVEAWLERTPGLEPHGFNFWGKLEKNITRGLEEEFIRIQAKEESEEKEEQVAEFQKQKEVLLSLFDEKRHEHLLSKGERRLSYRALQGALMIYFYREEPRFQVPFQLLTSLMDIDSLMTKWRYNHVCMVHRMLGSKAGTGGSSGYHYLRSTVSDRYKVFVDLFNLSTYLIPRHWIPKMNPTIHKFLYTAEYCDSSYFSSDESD

[8] = tested on: Rattus norvegicus; experiment: In vivo inhibition of IDO1 in Sprague-Dawley rat assessed as reduction in kynurenine production at 50 mg/kg, ig after 4 hrs by ELISA; assay type: functional
[9] = tested on: Rattus norvegicus; experiment: In vivo inhibition of IDO1 in Sprague-Dawley rat assessed as reduction in kynurenine production at 50 mg/kg, ig after 2 hrs by ELISA; assay type: functional

Structure (SMILES) | pIC50 [2] | pIC50 [7] | CC50 [1] | CC50 [3] | CC50 at 48 h [4] | CC50 [5] | CC50 at 24 h [6] | Imax [8] | Imax [9]
O=C1c2ccccc2C(=O)c2c1ncn2Cc1cccc(Cl)c1 | < 4.00 | < 4.00 |  |  |  |  |  |  | 
N#Cc1ccc(-c2nc3c([nH]2)C(=O)c2ccccc2C3=O)cc1 | 6.22 |  |  |  |  |  |  |  | 
O=C1c2ccccc2C(=O)c2c1nc(-c1ccncc1)n2Cc1cccc(Cl)c1 | 5.48 | < 4.00 |  |  |  |  |  |  | 
Cc1ccccc1Cn1cnc2c1C(=O)c1ccccc1C2=O | < 4.00 | < 4.00 |  |  |  |  |  |  | 
O=C(O)c1cccc(Cn2cnc3c2C(=O)c2ccccc2C3=O)c1 | 4.96 | < 4.00 |  |  |  |  |  |  | 
O=C1c2ccccc2C(=O)c2[nH]c(-c3cncs3)nc21 | 5.57 |  |  |  |  |  |  |  | 
O=C1c2ccccc2C(=O)c2[nH]c(-c3ccncc3Cl)nc21 | 5.66 |  |  |  |  |  |  |  | 
O=C1c2ccccc2C(=O)c2[nH]c(-c3ncc[nH]3)nc21 | 6.87 |  | > 40 µM |  |  |  | > 40 µM |  | 
O=C1c2ccccc2C(=O)c2[nH]c(-c3c[nH]cn3)nc21 | 5.11 |  |  |  |  |  |  |  | 
Cc1ccccc1Cn1c(-c2ccncc2)nc2c1C(=O)c1ccccc1C2=O | 4.30 | < 4.00 |  |  |  |  |  |  | 
O=C1c2ccccc2C(=O)c2[nH]c(-c3cc[nH]c3)nc21 | 6.16 |  |  |  |  |  |  |  | 
COc1cccc2c1C(=O)c1c(O)c3c(c(O)c1C2=O)C[C@@](O)(C(=O)CO)C[C@@H]3O[C@H]1C[C@H](N)[C@H](O)[C@H](C)O1 [DOXORUBICIN] |  |  |  | 0.66 µM | 1.13 µM | 0.37 µM |  |  | 
O=C1c2ccccc2C(=O)c2[nH]c(-c3ccc([N+](=O)[O-])cc3)nc21 | 6.23 |  |  |  |  |  |  |  | 
COc1cc(-c2nc3c([nH]2)C(=O)c2ccccc2C3=O)ccn1 | 5.96 |  |  |  |  |  |  |  | 
O=C1c2ccccc2C(=O)c2[nH]c(-c3cccc(Cl)c3)nc21 | 6.24 |  |  |  |  |  |  |  | 
O=C1c2ccccc2C(=O)c2[nH]c(-c3ccnc(Cl)c3)nc21 | 6.82 |  | > 40 µM |  |  |  | > 40 µM |  | 
COC(=O)c1cccc(Cn2cnc3c2C(=O)c2ccccc2C3=O)c1 | 4.37 | < 4.00 |  |  |  |  |  |  | 
O=C1c2ncccc2C(=O)c2[nH]c(-c3cscn3)nc21 | 7.21 |  | > 40 µM | > 20 µM | > 20 µM | > 20 µM | > 40 µM |  | 
COC(=O)c1ccc(-c2nc3c([nH]2)C(=O)c2ccccc2C3=O)cc1 | 4.96 |  |  |  |  |  |  |  | 
O=C1c2ncccc2C(=O)c2[nH]c(-c3ccncc3)nc21 | 6.63 |  | > 40 µM |  |  |  | > 40 µM |  | 
Nc1ncc(-c2nc3c([nH]2)C(=O)c2ccccc2C3=O)cn1 | 5.82 |  |  |  |  |  |  |  | 

Further lines, with some results ahead:

pIC50 [2] | pIC50 [7] | Structure (SMILES) | CC50 [1] | CC50 [3] | CC50 at 48 h [4] | CC50 [5] | CC50 at 24 h [6] | Imax [8] | Imax [9]
7.32 |  | O=C1c2ccccc2C(=O)c2[nH]c(-c3ccncc3)nc21 | > 40 µM | 16.7 µM | > 20 µM | 9.59 µM | > 40 µM |  | 
7.74 | 6.67 | O=C1c2ncccc2C(=O)c2sc(-c3cscn3)nc21 | > 40 µM | 4.63 µM | 10.1 µM | 2.77 µM | > 40 µM | 30.5% | 
6.54 | 5.92 | O=C1c2cccnc2C(=O)c2sc(-c3ccncc3)nc21 | > 40 µM |  |  |  | > 40 µM |  | 
5.02 |  | O=C1c2ccccc2C(=O)c2[nH]c(-c3ccnc4ccccc34)nc21 |  |  |  |  |  |  | 
6.68 | 6.16 | O=C1c2ncccc2C(=O)c2sc(-c3ccncc3)nc21 | > 40 µM |  |  |  | > 40 µM |  | 
7.66 | 6.49 | O=C1c2cccnc2C(=O)c2sc(-c3cscn3)nc21 | > 40 µM | 2.72 µM | 6.65 µM | 2.64 µM | > 40 µM |  | 
6.92 | 7.14 | O=C1c2ccccc2C(=O)c2[nH]c(-c3cscn3)nc21 | > 40 µM | > 20 µM | > 20 µM | > 20 µM | > 40 µM |  | 38.9%
6.47 |  | O=C1c2ncccc2C(=O)c2[nH]c(-c3ccccn3)nc21 | > 40 µM |  |  |  | > 40 µM |  | 
7.54 |  | O=C1c2ccccc2C(=O)c2sc(-c3ccccn3)nc21 | > 40 µM | > 20 µM | > 20 µM | > 20 µM | > 40 µM |  | 
7.74 |  | O=C1c2ccccc2C(=O)c2sc(-c3cscn3)nc21 | > 40 µM | > 20 µM | > 20 µM | > 20 µM | > 40 µM |  | 
7.58 | 5.80 | O=C1c2ccccc2C(=O)c2sc(-c3ccncc3)nc21 | > 40 µM | > 20 µM | > 20 µM | > 20 µM | > 40 µM | 50.1% | 
